# Measurements reported in patent US9688709B2, “Phosphaplatins and their use for treatment of cancers” (OHIO UNIVERSITY, priority 2010, dated 2017).
# “And” between values parts separate entries of the source, which are not always exact repeats. Identical values can stand only once.
# How the values were obtained:
# [1] = test system: A2780, epithelial human ovarian cancer; assay: Clonogenic assay, A2780 cells; format: cell-based
# Description: (§1) To determine the relative activities of the phosphaplatins of formulas (I)-(VI), each stereoisomer was tested through in vitro clonogenic assays using human ovarian cancer cells, human colon cancer cells, and human head-and-neck cancer cells. […] Cells were cultured on monolayer using RPMI 1640 supplemented with 10% fetal bovine serum, 2 mM glutamine, 0.25 units/mL insulin and penicillin/streptomycin (100 units/mL) in a 37° C. incubator continuously gassed with 5% CO2. Cells were subcultured using 0.0625% trypsin in HBSS to maintain cells in exponential cell growth.
# Half-maximal inhibitory concentration (IC50) values were determined using a clonogenic assay or a CyQUANT® cell proliferation assay. In the clonogenic assay, for example, 500-700 A2780 cells from a single cell suspension were plated onto 60 mm petri plates 24 hours before treatment with the platinum compounds to permit cell attachment. On the day of treatment with the platinum compounds described in the above Synthesis Examples, the medium was decanted and was replaced with the appropriate concentration of phosphaplatin compounds (from 50 nM to 75 μM) at three different time points, […] Triplicate plates were set up for each platinum compound concentration. […] These plates were returned to the 37° C. incubator for 7 days for colony formation.
# (§2) In TABLES 1-5, except where actual error values are given, each reported value is assumed to have an error not greater than ±15% of the reported value; and unless otherwise specified, the data were obtained from clonogenic assays.
# (§3) In further tests, cells were treated with the platinum compounds continuously for 7 days. Colonies were fixed and stained using 2% crystal violet in 4% formaldehyde. Colonies containing more than 50 cells were scored. The number of scored colonies from the triplicate plates was averaged, and this number was divided by the number of cells plated to obtain a value for the fraction of cells forming colonies. These values for fraction of cells forming colonies then were corrected for plating efficiency by dividing the fraction by the number of cells forming colonies in plates that were not treated with platinum compounds. […] Similar data for OVCAR-10 are shown in FIG. 3, comparing (1R,2R)-pyrodach-2 (RD2), (1R,2R)-pyrodach-4 (RD4), trans-(±)-pyrodach-2 (T-D2), and trans-(±)-pyrodach-4 (T-D4).
# [2] = test system: A2780/C30, epithelial human ovarian cancer resistant to 30 μM cisplatin and 100 μM carboplatin; assay: Clonogenic assay, A2780/C30 cells; format: cell-based; conditions: A2780/C30, 1 hour treatment
# Description: as §1
# Half-maximal inhibitory concentration (IC50) values were determined using a clonogenic assay or a CyQUANT® cell proliferation assay. In the clonogenic assay, for example, 500-700 A2780 cells from a single cell suspension were plated onto 60 mm petri plates 24 hours before treatment with the platinum compounds to permit cell attachment. On the day of treatment with the platinum compounds described in the above Synthesis Examples, the medium was decanted and was replaced with the appropriate concentration of phosphaplatin compounds (from 50 nM to 75 μM) at three different time points, […] Triplicate plates were set up for each platinum compound concentration. After the 24-hour treatment, the medium containing the platinum compounds was decanted and was replaced with fresh medium. These plates were returned to the 37° C. incubator for 7 days for colony formation.
# as §2, §3
# [3] = test system: OVCAR-10, human ovarian cancer resistant to cisplatin treatment; assay: Clonogenic assay, OVCAR-10 cells; format: cell-based; conditions: OVCAR-10, 24 hours treatment
# Description: as §1
# Half-maximal inhibitory concentration (IC50) values were determined using a clonogenic assay or a CyQUANT® cell proliferation assay. In the clonogenic assay, for example, 500-700 A2780 cells from a single cell suspension were plated onto 60 mm petri plates 24 hours before treatment with the platinum compounds to permit cell attachment. On the day of treatment with the platinum compounds described in the above Synthesis Examples, the medium was decanted and was replaced with the appropriate concentration of phosphaplatin compounds (from 50 nM to 75 μM) at three different time points, and the treated cells were placed back into the 37° C. incubator for 24 hours. Triplicate plates were set up for each platinum compound concentration. After the 24-hour treatment, the medium containing the platinum compounds was decanted and was replaced with fresh medium. These plates were returned to the 37° C. incubator for 7 days for colony formation.
# as §2, §3
# [4] = test system: Ovarian tumor; assay: Ovarian tumor inflicted SCID mice, tumor growth and log cell kill; format: in vivo
# Description: Ovarian tumor inflicted SCID mice were treated with trans-(±)-pyrodach-2 and trans-(±)-pyrodach-4 at various doses up to 40 mg/kg, and tumor growth was monitored up to six weeks or until the tumor size became so large that these animals were sacrificed. The tumor growth or regression by the phosphaplatin-treated mice was then compared with cisplatin-treated mice (7 mg/kg) and carboplatin-treated mice (60 mg/kg). Three doses of platinum compounds were administered on alternate days when the tumor grew to a size of at least 100 mm^3 size. Gross and net log cell kill values were then calculated using the formulas:
# [formula] [formula] where T and C are median times in days to grow tumor to a specified size, and Td is the median time in days to double the size of the tumor in control animals.
# [5] = test system: human ovarian cancer OVCAR-10 xenograft; assay: In vivo efficacy, OVCAR-10 mouse xenograft; parameters: species or system mice; conditions: 60 mg/kg qodx3, time to tumor size 1000 mm^3, compared with control
# Description: Stable human clonal ovarian cancer cell lines OVCAR-10 and head and neck cancer UMSCC10b were grown separately in cell culture until 80-90% confluency was reached. Trypsin (GIBCO/BRL, Grand Island, N.Y.) was used to detach adherent cells. Trypsinized cells were thoroughly washed with PBS (Phosphate Buffered Saline) to remove trypsin. Efficacy of phosphaplatin compounds were evaluated by subcutaneously implanting human OVCAR-10 and UMSCC-10b xenograft in SCID Hairless OutBred, SHO-Prkdc^scidHr^hr, (Charles River Labs, Wilmington, Mass.) mice, NIH (NIH III: NIHBNX-F; NIHS-Lystbg Foxnlnu Btkxid, 4-week old female, Taconic (Rensselaer, N.Y.) mice.
# Female SCID/NIH mice 4-5 weeks old were acclimated for one week before initiation of efficacy trials. Cancer cells were re-suspended in PBS and all mice except for negative control mice were injected subcutaneously with from 1×10^6 cells/0.10 mL to 5×10^6 cells/0.10 mL in PBS. The tumor size was evaluated as a function of time. The mice were examined daily for tumor growth. Tumors were measured using digital calipers. The tumor volume was calculated by the formula (W^2×L)/2, where W is the tumor measurement at the widest point, and L is the tumor dimension at the longest point, where the volume of the tumor in mm^3 is equivalent to the weight in mg.
# After approximately 2 weeks of the subcutaneous injection of cancer cells, the tumors that had reached a distinguishable tumor sizes (approximately 100 mm^3 to 200 mm^3), phosphaplatin compounds of desired doses were administered intra-peritoneally. These administrations were done one time on day 1, once on day 3, and once on day 5.
# Each group of xenograft mice was treated with phosphaplatin compounds, and a matched set was treated with vehicle/placebo (PBS solution) and mock injection (as a control for stress response). […] The xenograft SCID mice/NIH were monitored every day for any adverse events in their health by measuring weight loss/gain and food consumption. Measurements were stopped and the study was ended when the tumor size exceeded 3000 mm^3. […]
# [6] = Maximum tolerated dose toxicity in ICR (CD-1) mice; format: in vivo; conditions: dose of 60 mg/kg
# Description: Escalating doses were administered from 10 mg/kg to 100 mg/kg in 4-5 week-old female ICR (CD-1) mice, Taconic (Rensselaer, N.Y.). The mice had body weights between 15 g and 24 g. The mice were injected with one of the phosphaplatins every other day in a three-dose regimen. Total body-weight loss of 20% or more, unthrifty appearance, failure to gain weight, other observable health issues, departures from normal behaviors, or death, were considered an adverse event.
# [7] = test system: A549, human lung adenocarcinoma cancer cells; assay: CyQUANT cell proliferation assay, A549; format: cell-based; conditions: A549, 72-hour treatment
# Excerpt: (§4) In these experiments, desired number of cells were exposed to phosphaplatins of different concentrations for 72 hr. before measuring the DNA content. Because the DNA content is proportional to the number of surviving cells, the assay provides a quantitative measure of proliferating cells. The technique is described in detail in Jones et al., “Sensitive determination of cell number using the CyQUANT cell proliferation assay,” J. Immunol. Methods, vol. 254, pp. 85-98 (2001).
# as §2
# [8] = test system: U251, human glioblastoma cancer cells; assay: CyQUANT cell proliferation assay, U251; format: cell-based; conditions: U251, 72-hour treatment
# Excerpt: as §4, §2
# [9] = test system: PC-3, human metastatic prostate cancer cells; assay: CyQUANT cell proliferation assay, PC-3; format: cell-based; conditions: PC-3, 72-hour treatment
# Excerpt: as §4, §2
# [10] = test system: SKMEL-2, human skin melanoma cancer cells; assay: CyQUANT cell proliferation assay, SKMEL-2; format: cell-based; conditions: SKMEL-2, 72-hour treatment
# Excerpt: as §4, §2
# [11] = test system: OVCAR-8, human ovarian cancer cells with dysfunctional p53; assay: CyQUANT cell proliferation assay, OVCAR-8; format: cell-based; conditions: OVCAR-8, 72-hour treatment
# Excerpt: as §4, §2
# [12] = test system: OVCAR-10, human ovarian cancer resistant to cisplatin treatment; assay: CyQUANT cell proliferation assay, OVCAR-10; format: cell-based; conditions: OVCAR-10, 72-hour treatment
# Excerpt: as §4, §2
# [13] = test system: FAS; assay: Western blot protein expression, FAS; format: in vivo; conditions: treated mice, exposure 1 hour to 12 hours
# Description: (§5) Following 12% SDS-PAGE electrophoresis, proteins were transferred to a PVDF membrane using 100 V for 1.5 hours at 4° C. Membranes were washed with 0.05% TWEEN-20 and Tris-buffered saline (TBST) solution and blocked with 5% non-fat dry milk and 1% BSA. The membrane was incubated with a 1:25,000 dilution of primary antibody of the protein of interest over night at 4° C. Membranes were washed with 0.05% TBST followed by incubating in the corresponding HRP-conjugated antibody (1:40,000 dilution). The proteins were visualized using ECL-Advance chemiluminescent system (Amersham-GE Healthcare Biosciences, Pittsburgh, Pa.).
# (§6) The phosphaplatins activate a number of proapototic and tumor suppression genes such as FAS, PTEN, PUMA, BAX and others. Experiments through Western Blots confirm high levels of protein expressions transcribed by these genes. […] Likewise, BCL2 was down regulated as much as 70% by RR-pyrodach-2 and RR-pyrodach-4. Additionally, FAS, FADD, and platinum compound were co-localized in the lipid rafts. These activations are also associated with the increased expression of Sphingomyelinase (Smase), as verified by the increased protein expression of SMase.
# [14] = test system: BAX; assay: Western blot protein expression, BAX; format: in vivo; conditions: treated mice, exposure 1 hour to 12 hours
# Description: as §5, §6
# [15] = test system: PUMA; assay: Western blot protein expression, PUMA; format: in vivo; conditions: treated mice, exposure 1 hour to 12 hours
# Description: as §5, §6
# [16] = test system: VEGFR; assay: Western blot protein expression, VEGFR; format: in vivo; conditions: treated mice, exposure 1 hour to 12 hours
# Description: as §5, §6
# [17] = test system: OVCAR-5, advanced human ovarian cancer cells; assay: Clonogenic assay, OVCAR-5 cells; format: cell-based; conditions: OVCAR-5, 24 hours treatment
# Description: as §1
# (§7) Half-maximal inhibitory concentration (IC50) values were determined using a clonogenic assay or a CyQUANT® cell proliferation assay. In the clonogenic assay, for example, 500-700 A2780 cells from a single cell suspension were plated onto 60 mm petri plates 24 hours before treatment with the platinum compounds to permit cell attachment. […]
# (§8) In further tests, cells were treated with the platinum compounds continuously for 7 days. […] Colonies containing more than 50 cells were scored. The number of scored colonies from the triplicate plates was averaged, and this number was divided by the number of cells plated to obtain a value for the fraction of cells forming colonies. […]
# [18] = test system: UMSCC10b/15s, cisplatin-resistant human head-and-neck cancer cell line; assay: Clonogenic assay, UMSCC10b/15s cells; format: cell-based; conditions: 7-day treatment
# Description: as §1, §7, §8
# [19] = test system: pancreatic cell line Panc-1; assay: 144 hour exposure IC50, Panc-1; format: cell-based; conditions: Panc-1, 144 hours exposure
# Description: (§9) Additionally these isomeric compounds were also tested by exposing them for 144 hours in the following cell lines: UMSCC10b, Panc-1, UMSCC15s, A2780/C30 and HCC1806.
# [20] = test system: head and neck cancer cell line UMSCC10b; assay: 144 hour exposure IC50, UMSCC10b; format: cell-based, human
# Description: as §9
# [21] = test system: breast cancer cell line HCC1806; assay: 144 hour exposure IC50, HCC1806; format: cell-based; conditions: HCC1806, 144 hours exposure
# Description: as §9
# [22] = 40 mg/kg, three doses on alternate days
Compound,"IC50 ([1]; A2780, 1 hour treatment)","IC50 ([1]; A2780, 24 hours treatment)",IC50 [2],IC50 [3],IC50 [7],IC50 [8],IC50 [9],IC50 [10],IC50 [11],IC50 [12],further results
N.N.O=C([O-])C1(C(=O)[O-])CCC1.[Pt+2] [carboplatin],90 µM,> 60 µM,> 200 µM,26.7 µM,–,–,–,–,–,–,"population died ([4]; 60 mg/kg dose): more than 50%; log cell kill values ([4]; 60 mg/kg, three doses on alternate days): less than 2; percent increased life-span (% ILS) [5]: about 125%; death [6]: 33%"
"trans-(±)-1,2-cyclohexanediamine-trans-dihydroxo(pyrophosphato) platinum(IV) [trans-(±)-pyrodach-4]",180 µM and 170 µM,–,155 ± 20 µM,14.4 µM,12.2 µM,14.6 µM,20 µM,14.6 µM,12.3 µM,23.2 µM,"upregulation of FAS [13]: up to 25 fold; upregulation of BAX [14]: up to 4 fold; upregulation of PUMA [15]: up to 5 fold; down regulation of VEGFR [16]: up to 50%; gross log cell kill [4, 22]: greater than 3; log net cell kill [4, 22]: greater than 2"
"NC1CCCCC1N.O=P([O-])(O)OP(=O)([O-])O.[Pt+2] (racemic) [trans-(±)-pyrodach-2, trans-(±)-1,2-cyclohexanediamine(pyrophosphato) platinum(II)]",22 ± 4 µM,2.4 ± 0.2 µM,48 ± 5 µM,4.6 µM,11.1 µM,10.1 µM,24.5 µM,8.3 µM,9.4 µM,11.8 µM,IC50 [17]: 12.2 µM; IC50 [18]: 5 µM; IC50 [19]: 18.5 µM; IC50 [20]: 8.9 µM; IC50 [21]: > 30 µM
